The values below come from patent US20240174727A1, “LONG-ACTING NATRIURETIC PEPTIDES AND USES THEREOF” (Eli Lilly and Company, priority 2022, published 2024).

Numbered stars: 1 amine (or outer) side, 2 acyl side, 3 side chain; on linkers, the order of the positions; unused ones are H or OH. Bridge positions count the residues as written; N and C are the ends. Square brackets hold non-standard residues; d marks the D form. Peptide text beside a SMILES is read from it. * marks the point of attachment. C20 diacid = O=C(O)CCCCCCCCCCCCCCCCCCC(=O)*; γGlu = O=C(O)[C@H](CCC(=O)[*:2])N[*:1]; 4Pal = N[C@@H](Cc1ccncc1)C(=O)O; CH2 = C([*:1])[*:2]; βAla = NCCC(=O)O

Assay [1] concerns the target T1, human NPRA (Homo sapiens, UniProt P16066).
T1 construct: Full-Length cDNA Cloning and Generation of Cell Lines Overexpressing Natriuretic Peptide Receptors (NPRs); expressed in transfected cells; host or cells: Jump-in T-Rex HEK293 cells, pJTI R4 CMV-TO MCS pA vector, tetracycline induction
T1 sequence (P16066 33-1061): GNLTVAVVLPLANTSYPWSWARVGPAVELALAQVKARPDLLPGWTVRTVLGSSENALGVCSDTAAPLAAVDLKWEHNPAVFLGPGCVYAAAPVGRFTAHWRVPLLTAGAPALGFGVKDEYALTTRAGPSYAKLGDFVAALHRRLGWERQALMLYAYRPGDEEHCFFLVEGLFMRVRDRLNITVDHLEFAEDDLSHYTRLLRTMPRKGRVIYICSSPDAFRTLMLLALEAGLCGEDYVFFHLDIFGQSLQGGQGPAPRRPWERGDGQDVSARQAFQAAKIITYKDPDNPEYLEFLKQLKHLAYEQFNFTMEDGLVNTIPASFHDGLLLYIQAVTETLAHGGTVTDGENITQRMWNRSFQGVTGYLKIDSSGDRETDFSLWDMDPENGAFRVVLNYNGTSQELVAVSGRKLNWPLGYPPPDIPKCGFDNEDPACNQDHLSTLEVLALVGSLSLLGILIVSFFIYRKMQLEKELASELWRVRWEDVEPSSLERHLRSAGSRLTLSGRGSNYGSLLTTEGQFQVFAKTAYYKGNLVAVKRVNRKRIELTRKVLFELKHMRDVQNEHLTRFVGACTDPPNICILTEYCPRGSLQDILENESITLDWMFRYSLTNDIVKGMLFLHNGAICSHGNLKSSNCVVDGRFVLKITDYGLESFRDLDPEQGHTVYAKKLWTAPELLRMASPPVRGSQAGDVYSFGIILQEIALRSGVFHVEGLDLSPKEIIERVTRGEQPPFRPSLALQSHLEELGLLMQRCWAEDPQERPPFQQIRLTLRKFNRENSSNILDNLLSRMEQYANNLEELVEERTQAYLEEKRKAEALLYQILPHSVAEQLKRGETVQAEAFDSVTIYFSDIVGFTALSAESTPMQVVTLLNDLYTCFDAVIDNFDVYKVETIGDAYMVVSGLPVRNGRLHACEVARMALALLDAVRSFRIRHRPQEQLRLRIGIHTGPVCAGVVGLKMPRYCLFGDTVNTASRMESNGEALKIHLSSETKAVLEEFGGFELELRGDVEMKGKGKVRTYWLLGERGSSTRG
The assay can be described thus: Human NPRA cGMP activity assay (HTRF) in HEK293 cells overexpressing NPRA. Format: cell-based. To be noted: cGMP Assay (EC50, pM) w/Casein hNPRA, assay buffer with 0.1% casein. As to the method: All sequences were verified by full-length sequencing performed by ACGT DNA Sequencing Services (Wheeling, IL). The target cDNA was cloned into pJTI R4 CMV-TO MCS pA vector and then co-transfected with pJT1R4 Int vector into Jump-in™ T-Rex™ HEK293 cells for mammalian inducible expression using Jump-in™ T-Rex™ HEK293 kit and Lipofectamine LTX and Plus Reagent following manufacturer's protocols, as briefly described below.
Jump-in™ T-Rex™ HEK293 cells were plated in a BioCOAT® poly-D-lysine coated 6-well plate (Becton Dickinson, cat no. 354413) at 1 million cells/well in 2 mL culture medium and incubated for 18 h at 37° C. and 5% CO2 to 50-70% confluence. A cDNA mix was made in a 50 mL tube by adding 1.5 μg target cDNA, 1.5 μg pJT1R4 Int vector, 3 μL Plus Reagent, and 300 μL Opti-MEM I sequentially into the tube. A reagent mix was made in a separate 50 mL tube by adding 7.5 μL Lipofectamine LTX into 300 μL Opti-MEM I. The mixtures were incubated for 5 min at room temperature. The cDNA mix was then transferred into the reagent mix, mixed well, and incubated for additional 30 min at room temperature. A 500 μL of cDNA/Lipofectamine complex was then transferred to the wells of the cell plate in which the culture medium was changed to 2 mL of transfection medium containing DMEM with 4.5 g/L D-glucose supplemented with 10% FBS-HI and 20 mM HEPES. Transfected cells were cultured for 48 h in an incubator at 37° C. and 5% CO2. A subclone or pool from each overexpressing cell line was maintained in culture medium with the addition of 2 mg/mL G418 sulfate for the clone selection based on its built-in resistance to G418 sulfate for at least 3 weeks with medium changed every 2-3 days.
NPRs were overexpressed in T-Rex™ HEK293 cells following the induction with 300 ng/mL tetracycline in culture medium for 48 h. Induced cell lines in an exponential growth phase were treated with 0.05% trypsin-EDTA for a few seconds at room temperature, harvested in cell medium containing FBS to neutralize the trypsin, counted, and cryopreserved at the density of 2 million cells/mL in cell preservation solution containing FBS-HI with 5% DMSO. Cryopreserved cells were stored at −80° C. for a few days prior to transferring to a liquid nitrogen tank. Induced cell lines were then used for suspension assays to measure the activity of polypeptides to stimulate cGMP production in cGMP assays or for the preparation of cell membranes to measure the binding activity of polypeptides in competitive radioligand binding assays, as described below.
Test polypeptides were added starting at 10 μM concentration and at 10-fold decreasing concentrations to obtain 8-point concentration-response curves (i.e., 10 μM to 1 pM). The quantity of cGMP generated was detected using HTRF® technology and normalized to maximum amount produced by 100 nM amidated rat ANP and the minimum amount produced by assay buffer. Detailed steps are outlined below.
Stock solutions of test polypeptides (2 mM) dissolved in DMSO were first diluted 100-fold in assay buffer containing HBSS with Ca^2+ and Mg^2+, 5 mM HEPES, 0.5 mM IBMX, and 0.1% BSA or 0.1% casein (pH 7.4). The polypeptides were further serially diluted in 1:10 dilution steps in assay buffer containing 0.1% BSA or 0.1% casein to generate 8-point 2× working stock solutions ranging from 20 μM to […].
A 10 μL cell suspension containing 4000 cells was plated in Costar® half-area white opaque 96-well plates (Corning, cat no. 3693). Then 10 μL of assay buffer (basal activity), 200 nM of amidated rat ANP (maximum activity) or 2× working stock solutions of test polypeptides were transferred into the plate. Final concentration of DMSO in each well was 0.5%. The plate was shaken for 15 sec and then incubated for 40 min at room temperature.
The cGMP generated was measured using cGMP kit following the manufacturer's directions, as described below.
In general terms: In TR-FRET formats the signal depends on donor and acceptor labels being close together.

Assay [2] concerns the target T2, rat NPRA (Rattus norvegicus, UniProt P18910).
T2 construct: Full-Length cDNA Cloning and Generation of Cell Lines Overexpressing Natriuretic Peptide Receptors (NPRs); expressed in transfected cells; host or cells: Jump-in T-Rex HEK293 cells, pJTI R4 CMV-TO MCS pA vector, tetracycline induction
T2 sequence (P18910 29-1057): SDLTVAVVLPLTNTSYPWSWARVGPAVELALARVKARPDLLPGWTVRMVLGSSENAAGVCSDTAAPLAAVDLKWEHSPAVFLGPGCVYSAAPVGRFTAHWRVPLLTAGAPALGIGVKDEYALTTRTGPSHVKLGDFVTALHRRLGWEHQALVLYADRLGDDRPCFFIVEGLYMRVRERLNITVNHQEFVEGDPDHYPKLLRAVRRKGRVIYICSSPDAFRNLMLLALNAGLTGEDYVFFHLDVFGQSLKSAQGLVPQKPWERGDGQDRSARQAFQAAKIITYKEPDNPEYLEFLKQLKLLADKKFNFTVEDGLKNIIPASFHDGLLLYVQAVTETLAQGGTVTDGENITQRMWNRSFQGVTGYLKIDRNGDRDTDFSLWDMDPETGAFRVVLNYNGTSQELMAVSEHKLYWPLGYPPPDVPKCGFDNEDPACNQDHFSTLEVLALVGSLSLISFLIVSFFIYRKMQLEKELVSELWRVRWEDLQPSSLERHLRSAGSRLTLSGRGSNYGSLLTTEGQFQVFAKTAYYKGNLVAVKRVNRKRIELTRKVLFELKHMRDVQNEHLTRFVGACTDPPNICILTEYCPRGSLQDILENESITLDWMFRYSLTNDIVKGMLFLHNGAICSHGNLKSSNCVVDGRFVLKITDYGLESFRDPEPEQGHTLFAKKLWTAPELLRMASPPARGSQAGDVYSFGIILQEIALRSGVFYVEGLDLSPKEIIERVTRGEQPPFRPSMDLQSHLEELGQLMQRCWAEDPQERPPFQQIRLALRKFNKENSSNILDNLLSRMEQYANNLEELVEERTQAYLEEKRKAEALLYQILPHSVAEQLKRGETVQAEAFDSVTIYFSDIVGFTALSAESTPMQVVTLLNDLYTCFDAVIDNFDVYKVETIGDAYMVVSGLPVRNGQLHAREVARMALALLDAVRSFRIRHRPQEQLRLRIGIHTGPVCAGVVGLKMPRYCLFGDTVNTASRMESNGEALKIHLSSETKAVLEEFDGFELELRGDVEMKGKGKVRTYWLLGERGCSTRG
The assay can be described thus: Rat NPRA cGMP activity assay (HTRF) in HEK293 cells overexpressing NPRA. Format: cell-based. To be noted: assay buffer with 0.1% BSA, read-out: cGMP Assay (EC50, pM) w/BSA rNPRA. The procedure, abridged:
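Tetracycline-induced (300 ng/mL, 48 h) T-Rex HEK293 cells expressing NPRA, 4000 cells/well, treated 40 min at room temperature with polypeptide (8 points, 10 μM to 1 pM) in HBSS/HEPES buffer with 0.5 mM IBMX, pH 7.4. cGMP by HTRF, normalised to 100 nM amidated rat ANP and buffer.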

In turn, “{C20 diacid-γGlu}-EKEKEKGEK[βAla]RSSCFGGRIDRIGHYSGLGCPSLRHGGPSSGAPPPS-NH2 (linker 14-30 via CH2) [Example 63]” gave an EC50 in assay [1] of 1090 pM.
Same read-out and setting: the same measure for `CC[C@H](C)[C@@H]1NC(=O)[C@H](CCCNC(=N)N)NC(=O)[C@H](CC(=O)O)NC(=O)[C@H]([C@@H](C)CC)NC(=O)[C@H](CCCNC(=N)N)NC(=O)[C@H](CCCCN)NC(=O)CNC(=O)[C@H](Cc2ccccc2)NC(=O)[C@@H](NC(=O)[C@H](CO)NC(=O)[C@H](CO)NC(=O)[C@H](CCCNC(=N)N)NC(=O)[C@@H]2CCCN2C(=O)[C@H](CCCCN)NC(=O)[C@H](CCC(=O)O)NC(=O)COCCOCCNC(=O)COCCOCCNC(=O)COCCOCCNC(=O)COCCOCCNC(=O)COCCOCCNC(=O)COCCOCCNC(=O)COCCOCCNC(=O)COCCOCCNC(=O)CNC(=O)[C@H](CCCCN)NC(=O)[C@H](CCC(=O)O)NC(=O)[C@H](CCCCN)NC(=O)[C@H](CCC(=O)O)NC(=O)[C@H](CCCCN)NC(=O)[C@H](CCC(=O)O)NC(=O)CC[C@H](NC(=O)CCCCCCCCCCCCCCCCCCC(=O)O)C(=O)O)CSCSC[C@@H](C(=O)N2CCC[C@H]2C(=O)N[C@@H](CO)C(=O)N[C@@H](Cc2ccccc2)C(=O)N[C@@H](CCCNC(=N)N)C(=O)N[C@@H](Cc2c[nH]cn2)C(=O)N[C@@H](CO)C(=O)NCC(=O)N[C@@H](CO)C(=O)N2CCC[C@H]2C(=O)N[C@@H](CO)C(=O)N[C@@H](CO)C(=O)NCC(=O)N[C@@H](C)C(=O)N2CCC[C@H]2C(=O)N2CCC[C@H]2C(=O)N2CCC[C@H]2C(=O)N[C@@H](CO)C(=O)NCC(N)=O)NC(=O)CNC(=O)[C@H](CC(C)C)NC(=O)CNC(=O)[C@H](CO)NC(=O)[C@H](Cc2ccc(O)cc2)NC(=O)[C@H](Cc2c[nH]cn2)NC(=O)CNC1=O` [Example 126]: 1090 pM.
Take `CC[C@H](C)[C@@H]1NC(=O)[C@H](CCCNC(=N)N)NC(=O)[C@H](CC(=O)O)NC(=O)[C@H]([C@@H](C)CC)NC(=O)[C@H](CCCNC(=N)N)NC(=O)CNC(=O)CNC(=O)[C@H](Cc2ccccc2)NC(=O)[C@@H](NC(=O)[C@H](CO)NC(=O)[C@H](CO)NC(=O)[C@H](CCCNC(=N)N)NC(=O)[C@H](CCCNC(=N)N)NC(=O)[C@H](Cc2ccncc2)NC(=O)[C@H](CO)NC(=O)CNC(=O)[C@H](CCCCN)NC(=O)[C@H](CCC(=O)O)NC(=O)[C@H](CCCCN)NC(=O)[C@H](CCC(=O)O)NC(=O)[C@H](CCCCN)NC(=O)[C@H](CCC(=O)O)NC(=O)CC[C@H](NC(=O)CCCCCCCCCCCCCCCCCCC(=O)O)C(=O)O)CSSC[C@@H](C(=O)N2CCC[C@H]2C(=O)N[C@@H](CO)C(=O)N[C@@H](Cc2ccccc2)C(=O)N[C@@H](CCCNC(=N)N)C(=O)N[C@@H](Cc2c[nH]cn2)C(N)=O)NC(=O)CNC(=O)[C@H](CC(C)C)NC(=O)CNC(=O)[C@H](CO)NC(=O)[C@H](CCC(N)=O)NC(=O)[C@H](C)NC(=O)CNC1=O` [Example 22] ({C20 diacid-γGlu}-EKEKEKGS[4Pal]RRSSCFGGRIDRIGAQSGLGCPSFRH-NH2; disulfide 14-30): in assay [2], the EC50 turned out to be 192000 pM.
